Laboratory results from US12595269B2, “Morpholine-like monoamine releasers” (Solvonis Therapeutics Ireland Holdings Limited, priority 2022, dated 2026).

Key:
[1] = molecular target: T1, SERT (serotonin transporter) (Homo sapiens, UniProt P31645); assay: SERT uptake scintillation proximity assay, inhibition of [3H]-serotonin uptake in hSERT-CHO cells; type: cell-based; details: read-out: SERT uptake pIC50 (converted)
T1 construct: expressed in transfected cells; host or cells: CHO
Procedure: Overview: Eighty-eight compounds were tested in SERT (serotonin transporter) and DAT (dopamine transporter) uptake assays (completed as scintillation proximity assays, or SPAs, in a recombinant CHO cell line). Fifty-two compounds were tested in release assays for 5-HT and DA release in rat synaptosomes.
In addition, hSERT-CHO cells were detached using Versene and added at a density of 150,000 cells/mL to the SPA Mixture, which contains the following components in the Assay Buffer described above: 0.5 mg/mL SPA Imaging beads (RPNQ0001, PerkinElmer), 10 μM pargyline and 35 nM of [^3H]-serotonin (NET498, PerkinElmer). The SPA Mixture was added 20 μL/well to 384 well plates containing 0.1 μL/well of test compound in neat DMSO (11 points of 1:5 serial dilution, 0.5% DMSO final), 0.1 μL of DMSO (total uptake), or 0.1 μL of the standard inhibitor indatraline (1 μM, nonspecific uptake). Plates were sealed with a Top-seal A and read using a Microbeta counter (PerkinElmer) after 120 minutes of incubation at room temperature.
For both tests, the raw experimental data (cpm) were elaborated for the determination of pIC50/IC50 values as % inhibition of specific uptake. Concentration-response curves of MDMA, MDDMA, citalopram and GBR-12909 were used as internal standards in all experiments, and the signal window was monitored in each plate performing Z′ calculations, as described in Zhang et al., J. Biomol. Screen., 1999; 4: 67-73.

[2] = Plasma protein binding by equilibrium dialysis, human plasma; type: in vitro ADME; details: pH 7.4
Procedure: (§1) Methods and Procedure: This study was performed in agreement with the previously described procedures to assure data integrity and adherence to GLP standards. Plasma protein binding and blood tissue binding of test items (0.5 μM) was determined using biological samples from male Sprague Dawley (SD) rats and humans. […] Dexamethasone was used as a control for lung tissue binding. Various biological samples were spiked with test compounds according to the methods that follow.
Preparation of plasma or blood samples: An appropriate amount of test compound was dissolved in DMSO to yield a 10 mM solution. Further dilutions, to obtain 50 μM working solutions (WS), were then prepared using 50% acetonitrile in Milli-Q water. These 100×WS were used to spike plasma or blood to obtain a final concentration of 0.5 μM. From this initial spiking solution, control samples (n=3), referred to as T=0, were immediately extracted and used to calculate the recovery of the test item.
An equilibrium dialysis method was performed to determine protein binding in the various biological samples described herein. Materials were prepared and methods were in accordance with the following procedures. […]
(§2) Dialysis buffer was prepared by dissolving Na2HPO4 8.69 g, KH2PO4 1.90 g, and NaCl 4.11 g in 1 L of MilliQ water, and adjusting the pH to 7.4 with H3PO4. […] In order to control the integrity of the membrane after the dialysis process, the presence of protein was assessed in the buffer compartment. […]
Samples were analyzed in a LC-MS/MS system using an analytical method to monitor the compound to internal standard peak area ratios as representative of the compound concentrations. Alternatively, samples were analyzed by RapidFire.
Protein binding in plasma, blood, brain, and lung tissue samples were determined with the following formula: Afu=Buffer/x, wherein “x” may be plasma, blood, brain, or lung, and “Afu” is the apparent fraction unbound, and the other variables refer to the analyte/internal standard ratio determined in their specific compartment (buffer, plasma, blood, brain homogenate, and lung homogenate); […]

[3] = Brain tissue binding (BTB) by equilibrium dialysis, rat brain homogenate; type: in vitro ADME; details: male, Sprague Dawley, pH 7.4
Procedure: as §1
Preparation of brain homogenate samples: Test items were dissolved in DMSO (or an appropriate solvent) to give a 10 mM solution. Further dilutions, to obtain […] working solutions (WS), were then prepared using 50% acetonitrile in Milli Q water. These 100×WS were used to spike the brain homogenate to obtain a final concentration of 5 μM. From this initial spiking solution, control samples (n=3) referred to as T=0, were immediately extracted by protein precipitation.
An equilibrium dialysis method was performed to determine protein binding in the various biological samples described herein. Materials were prepared and methods were in accordance with the following procedures.
Membranes were prepared for use in the equilibrium dialysis experiment, by soaking in deionized water for at least 60 minutes. After this period, 20% of pure ethanol was added, and the membranes were left in this solution for at least 20 minutes. The membranes were then rinsed in Milli-Q water prior to use. […]
as §2
Samples were analyzed in a LC-MS/MS system using an analytical method to monitor the compound to internal standard peak area ratios as representative of the compound concentrations. Alternatively, samples were analyzed by RapidFire. […]

T1 sequence (P31645 whole entry): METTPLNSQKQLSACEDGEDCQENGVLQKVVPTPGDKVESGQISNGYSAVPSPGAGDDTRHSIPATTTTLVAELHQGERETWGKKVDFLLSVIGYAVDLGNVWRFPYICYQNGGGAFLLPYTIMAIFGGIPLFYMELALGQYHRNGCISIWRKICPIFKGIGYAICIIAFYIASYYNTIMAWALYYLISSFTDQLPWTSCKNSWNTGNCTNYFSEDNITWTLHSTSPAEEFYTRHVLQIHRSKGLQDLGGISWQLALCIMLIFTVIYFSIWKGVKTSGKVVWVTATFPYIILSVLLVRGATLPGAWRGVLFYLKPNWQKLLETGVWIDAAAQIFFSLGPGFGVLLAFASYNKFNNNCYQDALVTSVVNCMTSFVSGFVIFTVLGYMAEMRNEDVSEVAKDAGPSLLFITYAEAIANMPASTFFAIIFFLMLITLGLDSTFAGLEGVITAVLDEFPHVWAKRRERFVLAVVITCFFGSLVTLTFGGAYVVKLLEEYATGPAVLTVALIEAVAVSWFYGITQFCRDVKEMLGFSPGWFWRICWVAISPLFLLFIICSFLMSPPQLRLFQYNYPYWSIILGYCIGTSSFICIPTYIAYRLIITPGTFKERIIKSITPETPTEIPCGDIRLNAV

SMILES: Clc1ccc([C@]23CN[C@H](CO2)C3)cc1Cl (single isomer, unassigned) [516A]
- IC50 [1]: 46.8 nM

SMILES: Clc1ccc([C@@]23CN[C@@H](CO2)C3)cc1Cl (single isomer, unassigned) [518A]
- IC50 [1]: 81.3 nM
- fraction unbound at 5 h, 0.5 µM [2]: 0.0143
- fraction unbound at 5 h, 5 µM [3]: 0.0127

SMILES: Clc1ccc(C23CNC(CO2)C3)cc1Cl (stereo not drawn) [522A, 1-(3,4-dichlorophenyl)-2-oxa-5-azabicyclo[2.2.1]heptane]
- IC50 [1]: 56.2 nM
- fraction unbound at 5 h, 0.5 µM [2]: 0.021
- fraction unbound at 5 h, 5 µM [3]: 0.022

SMILES: CNC(C)Cc1ccc2c(c1)OCO2 (stereo not drawn) [MDMA, reference compound]
- fraction unbound at 5 h, 0.5 µM [2]: > 0.5
- fraction unbound at 5 h, 5 µM [3]: ~0.4
